Experimental findings from US20230286929A1, “AROMATIC BRIDGED RING AMIDE DERIVATIVES FOR THE TREATMENT AND PROPHYLAXIS OF HEPATITIS B VIRUS INFECTION” (Hoffmann-La Roche Inc., priority 2020, published 2023) are described below.

Common to all, as to type: cell-based
A short description of data set [1]: Cytotoxicity in PHH natural infection assay (Cell Counting Kit-8). To be noted: HBV-infected primary human hepatocytes, CCK8.
Data set [2] concerns HBsAg. Kind of data set: PHH HBV natural infection assay, HBsAg (alphalisa). To be noted: Hepatitis B virus, Hepatocyte, 72 h, read-out: HBsAg IC50. The gist of the method: (§1)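 Primary human hepatocytes infected with HBV at 200 GE/cell with 4% PEG8000 for 24 h, then sandwich-cultured 72 h with 1% DMSO. Compounds applied twice at 72-hour interval; supernatant HBsAg and HBeAg measured by AlphaLISA.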
Background: In Alpha technology, singlet oxygen from a donor bead excites a nearby acceptor bead.

The test system of data set [3] is HBeAg. Kind of data set: PHH HBV natural infection assay, HBeAg (alphalisa). To be noted: Hepatitis B virus, Hepatocyte, 72 h, read-out: HbeAg IC50. The gist of the method: as §1

The CC50 is the concentration giving 50% cytotoxicity. Higher therefore signals better tolerance by the cells. One may read the IC50 as the concentration that gives 50% inhibition. In data set [1], `O=C(NC12CCC(c3nc4cc(Cl)ccc4o3)(CC1)CC2)C1CCCS(=O)(=O)C1` (stereo not drawn) [Example 52, N-[4-(5-chloro-1,3-benzoxazol-2-yl)-1-bicyclo[2.2.2]octanyl]-1,1-dioxo-thiane-3-carboxamide] came in with a CC50 at 144 h greater than 100 µM. The half-inhibitory concentration (IC50) was 2.76 µM in data set [2] and 1.06 µM in data set [3].

With `NS(=O)(=O)Cc1ccc(C(=O)NC23CC(c4nc5cc(Cl)ccc5o4)(C2)C3)o1` [Example 18, N-[3-(5-chloro-1,3-benzoxazol-2-yl)-1-bicyclo[1.1.1]pentanyl]-5-(sulfamoylmethyl)furan-2-carboxamide], the half-maximal cytotoxic concentration (CC50) at 144 h in data set [1] is greater than 100 µM. In addition, the IC50 amounted to 4.96 µM in data set [2] and 3.7 µM in data set [3].

`CS(=O)(=O)c1ccc(C(=O)NC23CCC(c4nc5cc(Cl)ccc5o4)(CC2)C3)o1` [Example 46, N-[4-(5-chloro-1,3-benzoxazol-2-yl)norbornan-1-yl]-5-methylsulfonyl-furan-2-carboxamide] gave a CC50 at 144 h in data set [1] of 76.6 µM. Also, the results for the IC50 in data set [2] and in data set [3] were 7.15 µM and 4.48 µM, respectively.

For `CS(=N)(=O)Cc1ccc(C(=O)NC23CC(c4nc5ccc(Cl)cc5o4)(C2)C3)o1` (stereo not drawn) [Example 40, N-[3-(6-chloro-1,3-benzoxazol-2-yl)-1-bicyclo[1.1.1]pentanyl]-5-[(methylsulfonimidoyl)methyl]furan-2-carboxamide], in data set [1], the cytotoxic concentration (CC50) at 144 h is greater than 100 µM. For the same molecule, the IC50 is 6.99 µM in data set [2] and 4.07 µM in data set [3].

For the molecule `O=C(NC12CC(c3nc4cc(Cl)ccc4o3)(C1)C2)c1ccc(S(=O)(=O)CC2COC2)o1` [Example 14, N-[3-(5-chloro-1,3-benzoxazol-2-yl)-1-bicyclo[1.1.1]pentanyl]-5-(oxetan-3-ylmethylsulfonyl)furan-2-carboxamide], the CC50 at 144 h in data set [1] is 95.7 µM. The figures for the IC50 in data set [2] and in data set [3] were 5.18 µM and 3.56 µM, respectively.

`CS(=O)(=O)Cc1ccc(C(=O)NC23CC(c4nc5ccc(Cl)cc5o4)(C2)C3)o1` [Example 39, N-[3-(6-chloro-1,3-benzoxazol-2-yl)-1-bicyclo[1.1.1]pentanyl]-5-(methylsulfonylmethyl)furan-2-carboxamide]: in data set [1], the CC50 at 144 h was greater than 100 µM. For the same molecule, the IC50 in data set [2] amounted to 0.648 µM; in data set [3], 0.75 µM.

In the case of `N=S(=O)(c1ccc(C(=O)NC23CC(c4nc5cc(Cl)ccc5o4)(C2)C3)o1)C1CC1` (stereo not drawn) [Example 11, N-[3-(5-chloro-1,3-benzoxazol-2-yl)-1-bicyclo[1.1.1]pentanyl]-5-(cyclopropylsulfonimidoyl)furan-2-carboxamide], the CC50 at 144 h in data set [1] was greater than 100 µM. The results for the IC50 in data set [2] and in data set [3] were 0.823 µM and 0.594 µM, respectively.
